# From patent US20220323406A1, “METHODS AND COMPOSITIONS FOR DIFFERENTIATING STEM CELLS” (Massachusetts Institute of Technology, priority 2019, published 2022)
# What was measured:
# [1] = test system: ENR+CD organoids; experiment: Primary screen: ATP (CellTiter-Glo 3D, CTG) cell number/viability, 2.5-D 384-well ENR+CD organoids; settings: primary screen; for Z.CTG: standard z score;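 as to all read-outs here: compounds given at plating and again on day 3 over a 6-day differentiation from ENR+CV stem-cell-enriched precursors, ATP measured on day 6, plate median as control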
# [2] = test system: ENR+CD organoids (ISC to Paneth cell differentiation); experiment: Secondary (validation) screen: LYZ.S CCh-stimulated lysozyme secretion, 2.5-D 384-well ENR+CD organoids; format: cell-based, mouse; settings: 6-day ENR+CD, vs ENR+CD+DMSO
# Description: (§1) Drugs were tested at a narrowed dose range around each treatment's identified optimal dose from the primary screen (4× below, 2× above and below).
# (§2) High-throughput screening.
# (§3) Secondary lysozyme secretion assay screen. Confirmatory secondary screening with primary hits was performed using the above 384-well plate method. The screen was conducted with 4-plate replicates with a base media of ENR+CD. Media was supplemented with compound at day 0 and day 3 (n=8 well replicates per dose) at four different doses: two-fold above, two-fold below, and four-fold below the optimal final dose for each respective treatment. Additionally, each plate carried a large number of ENR+DMSO or ENR+CD+DMSO (vehicle) control wells (n=100 for ATP, and n=25 for LYZ.NS and LYZ.S) for robust normalization. ATP, non-stimulated lysozyme activity and CCh-stimulated lysozyme activity was again measured and the collected data was again processed in a custom R-script, per primary screen with slight modification. Values were log10 transformed, and a plate-wise FC was calculated for each well based on the median value of ENR+CD+DMSO (vehicle) control wells to normalize plate to plate variability.
# [3] = test system: ENR+CD organoids (ISC to Paneth cell differentiation); experiment: Primary screen: basal (non-stimulated) lysozyme secretion LYZ.NS, 2.5-D 384-well ENR+CD organoid differentiation; format: cell-based, mouse; settings: primary screen; for Z.LYZ.NS: standard z score
# Text: as §2
# [4] = test system: ENR+CD organoids (ISC to Paneth cell differentiation); experiment: Primary screen: CCh-stimulated lysozyme secretion LYZ.S, 2.5-D 384-well ENR+CD organoid differentiation; format: cell-based, mouse; settings: primary screen
# Text: as §2
# [5] = test system: ENR+CD organoids (ISC to Paneth cell differentiation); experiment: Secondary (validation) screen: LYZ.NS basal lysozyme secretion, 2.5-D 384-well ENR+CD organoids; format: cell-based, mouse; settings: 6-day ENR+CD, vs ENR+CD+DMSO
# Description: as §1, §2, §3
# [6] = test system: ENR+CD organoids; experiment: Secondary (validation) screen: ATP (CTG) assay, 2.5-D 384-well ENR+CD organoids; format: cell-based, mouse; settings: 6-day ENR+CD, vs ENR+CD+DMSO
# Description: as §1, §2, §3
smiles,measurement,setting,value
NC1(Cc2ccc(Cl)cc2)CCN(c2ncnc3[nH]ccc23)CC1 [CCT128930],Dose.FC.CTG,[1]; dose 0.08 uM,0.095 log2 fold change
same,Dose.FC.CTG,[1]; dose 0.40 uM,−0.025 log2 fold change
same,Dose.FC.CTG,[1]; dose 2.00 uM,0.127 log2 fold change
same,Dose.FC.CTG,[1]; dose 10.00 uM,−0.175 log2 fold change
same,Z.CTG,[1]; dose 0.08 uM,0.228
same,Z.CTG,[1]; dose 0.40 uM,−0.060
same,Z.CTG,[1]; dose 2.00 uM,0.304
same,Z.CTG,[1]; dose 10.00 uM,−0.418
same,Dose.FC.LYZ.S,[2]; 0.02 uM,−0.319 log2 fold change
same,Z.LYZ.S,[2]; 0.02 uM,−2.445
same,repSSMD.LYZ.S,[2]; 0.02 uM,−3.825
same,Dose.FC.LYZ.S,[2]; 0.04 uM,−0.014 log2 fold change
same,Z.LYZ.S,[2]; 0.04 uM,−0.108
same,repSSMD.LYZ.S,[2]; 0.04 uM,−0.157
same,Dose.FC.LYZ.S,[2]; 0.08 uM,0.005 log2 fold change
same,Z.LYZ.S,[2]; 0.08 uM,0.041
same,repSSMD.LYZ.S,[2]; 0.08 uM,0.069
same,Dose.FC.LYZ.S,[2]; […],−0.217 log2 fold change
same,Dose.FC.LYZ.NS,[3]; dose 0.08 uM,0.323 log2 fold change
same,Dose.FC.LYZ.NS,[3]; dose 0.40 uM,−0.018 log2 fold change
same,Dose.FC.LYZ.NS,[3]; dose 2.00 uM,0.073 log2 fold change
same,Dose.FC.LYZ.NS,[3]; dose 10.00 uM,−0.150 log2 fold change
same,Z.LYZ.NS,[3]; dose 0.08 uM,2.811
same,Z.LYZ.NS,[3]; dose 0.40 uM,−0.154
same,Z.LYZ.NS,[3]; dose 2.00 uM,0.633
same,Z.LYZ.NS,[3]; dose 10.00 uM,−1.307
same,Dose.FC.LYZ.S,[4]; dose 0.08 uM,0.266 log2 fold change
same,Dose.FC.LYZ.S,[4]; dose 0.40 uM,−0.007 log2 fold change
same,Dose.FC.LYZ.S,[4]; dose 2.00 uM,0.053 log2 fold change
same,Dose.FC.LYZ.S,[4]; dose 10.00 uM,−0.201 log2 fold change
same,Dose.FC.LYZ.NS,[5]; 0.02 uM,−0.241 log2 fold change
same,Z.LYZ.NS,[5]; 0.02 uM,−1.927
same,repSSMD.LYZ.NS,[5]; 0.02 uM,−2.551
same,Dose.FC.LYZ.NS,[5]; 0.04 uM,−0.020 log2 fold change
same,Z.LYZ.NS,[5]; 0.04 uM,−0.164
same,repSSMD.LYZ.NS,[5]; 0.04 uM,−0.204
same,Dose.FC.LYZ.NS,[5]; 0.08 uM,0.031 log2 fold change
same,Z.LYZ.NS,[5]; 0.08 uM,0.248
same,repSSMD.LYZ.NS,[5]; 0.08 uM,0.366
same,Dose.FC.LYZ.NS,[5]; […],−0.160 log2 fold change
same,Dose.FC.CTG,[6]; 0.02 uM,−0.117 log2 fold change
same,Z.CTG,[6]; 0.02 uM,−1.054
same,repSSMD.CTG,[6]; 0.02 uM,−0.787
same,Dose.FC.CTG,[6]; 0.04 uM,0.122 log2 fold change
same,Z.CTG,[6]; 0.04 uM,1.101
same,repSSMD.CTG,[6]; 0.04 uM,0.922
same,Dose.FC.CTG,[6]; 0.08 uM,0.166 log2 fold change
same,Z.CTG,[6]; 0.08 uM,1.494
same,repSSMD.CTG,[6]; 0.08 uM,1.047
same,Dose.FC.CTG,[6]; […],−0.088 log2 fold change
"CCOc1ccc(Cc2cc([C@@H]3O[C@H](CO)[C@@H](O)[C@H](O)[C@H]3O)ccc2Cl)cc1 [Dapagliflozin, reference compound]",Dose.FC.CTG,[1]; dose 0.08 uM,0.410 log2 fold change
same,Dose.FC.CTG,[1]; dose 0.40 uM,0.254 log2 fold change
same,Dose.FC.CTG,[1]; dose 2.00 uM,0.293 log2 fold change
same,Dose.FC.CTG,[1]; dose 10.00 uM,0.301 log2 fold change
same,Dose.FC.LYZ.S,[2]; 0.02 uM,−0.019 log2 fold change
same,Dose.FC.LYZ.S,[2]; 0.04 uM,0.069 log2 fold change
same,Dose.FC.LYZ.S,[2]; 0.08 uM,0.069 log2 fold change
same,Dose.FC.LYZ.S,[2]; […],−0.082 log2 fold change
same,Dose.FC.LYZ.NS,[3]; dose 0.08 uM,0.170 log2 fold change
same,Dose.FC.LYZ.NS,[3]; dose 0.40 uM,0.097 log2 fold change
same,Dose.FC.LYZ.NS,[3]; dose 2.00 uM,0.159 log2 fold change
same,Dose.FC.LYZ.NS,[3]; dose 10.00 uM,0.136 log2 fold change
same,Z.LYZ.NS,[3]; dose 0.08 uM,1.481
same,Z.LYZ.NS,[3]; dose 0.40 uM,0.842
same,Z.LYZ.NS,[3]; dose 2.00 uM,1.386
same,Z.LYZ.NS,[3]; dose 10.00 uM,1.182
same,Dose.FC.LYZ.S,[4]; dose 0.08 uM,0.294 log2 fold change
same,Dose.FC.LYZ.S,[4]; dose 0.40 uM,0.135 log2 fold change
same,Dose.FC.LYZ.S,[4]; dose 2.00 uM,0.166 log2 fold change
same,Dose.FC.LYZ.S,[4]; dose 10.00 uM,0.145 log2 fold change
same,Dose.FC.LYZ.NS,[5]; 0.02 uM,0.022 log2 fold change
same,Dose.FC.LYZ.NS,[5]; 0.04 uM,0.150 log2 fold change
same,Dose.FC.LYZ.NS,[5]; 0.08 uM,0.058 log2 fold change
same,Dose.FC.LYZ.NS,[5]; […],−0.060 log2 fold change
same,Dose.FC.CTG,[6]; 0.02 uM,0.085 log2 fold change
same,Dose.FC.CTG,[6]; 0.04 uM,0.174 log2 fold change
same,Dose.FC.CTG,[6]; 0.08 uM,0.149 log2 fold change
same,Dose.FC.CTG,[6]; […],0.035 log2 fold change
